Data set [1] deals with human SMAD7 mRNA. Kind of data set: Dose-dependent inhibition of human SMAD7 mRNA expression in Hep3B cells (Example 3, Study 1 and 2). The conditions noted are these: electroporation; for % inhibition of SMAD7 mRNA expression: approximately 16 hours; for IC50: Study 2 (740-20000 nM). It is filed as cell-based. The method, boiled down:
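Hep3B cells, 20,000 per well, electroporated with antisense oligonucleotide at 0.31, 1.25, 5.00 or 20.00 μM (first series) or 0.74, 2.22, 6.67 or 20.00 μM (second series). After ~16 h, SMAD7 mRNA measured by RT-qPCR (RTS5062), normalised to RIBOGREEN total RNA. Percent inhibition vs untreated cells; IC50 derived.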

The subject of data set [2] is human SMAD7 mRNA. Kind of data set: Antisense inhibition of human SMAD7 mRNA expression in Hep3B cells by 3-10-3 cEt gapmers, 10,000 nM, electroporation (Example 2). The data set is classed as cell-based. Conditions: Hep3B cells, approximately 24 hours; for % Inhibition: electroporation with 10,000 nM antisense oligonucleotide, RTS5062, percent inhibition of SMAD7 mRNA relative to untreated control cells; for % inhibition of SMAD7 mRNA expression: electroporation, 10,000 nM antisense oligonucleotide, RTS5062, relative to untreated control cells. The method, boiled down:
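Hep3B cells (20,000 per well) were electroporated with 10,000 nM 16-mer 3-10-3 cEt gapmer (phosphorothioate, 5-methylcytosine). After about 24 h, SMAD7 mRNA was quantified by qRT-PCR with primer probe set RTS5062, normalised to RIBOGREEN total RNA, and expressed as percent inhibition versus untreated cells.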

Setting [3] is: 740 nM, Study 2, relative to untreated control cells.

Strand notation (5' to 3'): a small letter for the sugar, then the base; units joined by * are phosphorothioate-linked, units joined directly phosphodiester-linked; [ ] holds rarer units or linkages, { } end groups; capitals alone tell only the bases. k = constrained ethyl (cEt); [5mC] = 5-methylcytosine; d = 2'-deoxy (DNA)

Usually IC50 stands for the point on the concentration scale where inhibition reaches its midpoint. The term % Inhibition denotes the share of the control response that was lost under treatment. Lower therefore signals a response near the control. Regarding “799669 (antisense kT*kA*kT*dG*dA*d[5mC]*dA*dG*dA*dT*dG*d[5mC]*d[5mC]*kA*kG*k[5mC]) [compound 799669]”, the “% inhibition of SMAD7 mRNA expression” value stood at 47% in data set [1] (setting [3]); 72% in data set [1] (2220 nM, Study 2); 82% in data set [1] (6670.0 nM, Study 2); 95% in data set [1] (20000.0 nM, Study 2). This substance gave a half-maximal inhibitory concentration (IC50) in data set [1] of 3 µM. In data set [2], the “% Inhibition” value turned out to be 81%.

On to “799671 (antisense kA*kG*kG*dT*dA*dT*dT*dT*dT*dT*dG*dA*dA*kG*kG*k[5mC]) [compound 799671]”, for which the “% inhibition of SMAD7 mRNA expression” value in data set [1] (setting [3]) is given as 22%; in data set [1] (2220 nM, Study 2), 56%; in data set [1] (6670.0 nM, Study 2), 71%; in data set [1] (20000.0 nM, Study 2) it was 74%. The substance also had an IC50 in data set [1] of 2 µM. Further, in data set [2], the “% Inhibition” value is on record as 59%.

Regarding “799673 (antisense k[5mC]*kT*kG*dA*dT*dT*dA*dA*d[5mC]*dT*dT*dT*d[5mC]*k[5mC]*kT*kT) [compound 799673]”, the “% inhibition of SMAD7 mRNA expression” value in data set [1] (setting [3]) amounted to 29%; in data set [1] (2220 nM, Study 2), 66%; in data set [1] (6670.0 nM, Study 2), 74%; in data set [1] (20000.0 nM, Study 2), 86%; in data set [2], 64%. The same substance gave a concentration for half-maximal inhibition (IC50) in data set [1] of 4 µM.

On to “799674 (antisense kG*kA*kT*d[5mC]*dA*d[5mC]*dA*dA*dT*dT*d[5mC]*d[5mC]*dA*kA*kG*k[5mC]) [compound 799674]”, for which the “% inhibition of SMAD7 mRNA expression” value amounted to 16% in data set [1] (setting [3]); 35% in data set [1] (2220 nM, Study 2); 64% in data set [1] (6670.0 nM, Study 2); 91% in data set [1] (20000.0 nM, Study 2); 48% in data set [2]. Further, in data set [1], the IC50 turned out to be 14 µM.

“799686 (antisense kG*kA*kG*dA*dT*dT*dT*dT*dA*dA*dA*dT*dG*k[5mC]*kT*kG) [compound 799686]”: the “% inhibition of SMAD7 mRNA expression” value in data set [1] (setting [3]) came out at 18%; in data set [1] (2220 nM, Study 2), 35%; in data set [1] (6670.0 nM, Study 2), 36%; in data set [1] (20000.0 nM, Study 2), 56%. In data set [1], the IC50 is 2 µM. In addition, the “% Inhibition” value in data set [2] was found to be 62%.

For “799689 (antisense kT*kG*k[5mC]*dT*dA*d[5mC]*dA*dG*dT*dG*dT*d[5mC]*dA*k[5mC]*k[5mC]*kA) [compound 799689]”, the “% inhibition of SMAD7 mRNA expression” value worked out at 34% in data set [1] (setting [3]); 49% in data set [1] (2220 nM, Study 2); 65% in data set [1] (6670.0 nM, Study 2); 73% in data set [1] (20000.0 nM, Study 2). This substance came in with an IC50 in data set [1] of 5 µM. Also, the “% Inhibition” value in data set [2] was determined as 63%.

With “799708 (antisense k[5mC]*kA*kA*dA*d[5mC]*dT*dT*dG*dT*dG*dG*dT*dA*kA*kA*kA) [compound 799708]”, the “% inhibition of SMAD7 mRNA expression” value in data set [1] (setting [3]) is recorded as 15%; in data set [1] (2220 nM, Study 2) it was 35%; in data set [1] (6670.0 nM, Study 2), 52%; in data set [1] (20000.0 nM, Study 2), 79%. This substance returned an IC50 in data set [1] of 11 µM. Also, in data set [2], the “% Inhibition” value is reported as 60%.

“799709 (antisense kT*k[5mC]*kA*dA*dA*d[5mC]*dT*dT*dG*dT*dG*dG*dT*kA*kA*kA) [compound 799709]”: the “% inhibition of SMAD7 mRNA expression” value amounted to 0% in data set [1] (setting [3]); 27% in data set [1] (2220 nM, Study 2); 36% in data set [1] (6670.0 nM, Study 2); 62% in data set [1] (20000.0 nM, Study 2). The substance also had a 50% inhibitory concentration (IC50) in data set [1] of 7 µM. In addition, in data set [2], the “% Inhibition” value worked out at 60%.

Consider “799711 (antisense kG*kG*kT*d[5mC]*dA*dA*dA*d[5mC]*dT*dT*dG*dT*dG*kG*kT*kA) [compound 799711]”, for which the “% inhibition of SMAD7 mRNA expression” value is 36% in data set [1] (setting [3]); 47% in data set [1] (2220 nM, Study 2); 51% in data set [1] (6670.0 nM, Study 2); 54% in data set [1] (20000.0 nM, Study 2). Besides, the midpoint of inhibition in data set [1], the IC50, lay at 5 µM. Also, in data set [2], the “% Inhibition” value is on record as 60%.

Turning to “799712 (antisense kA*kT*kA*dG*dA*dT*dT*dA*dT*d[5mC]*d[5mC]*dA*dA*kG*kT*kA) [compound 799712]”, the “% inhibition of SMAD7 mRNA expression” value in data set [1] (setting [3]) is listed as 27%; in data set [1] (2220 nM, Study 2), 45%; in data set [1] (6670.0 nM, Study 2), 55%; in data set [1] (20000.0 nM, Study 2), 63%; in data set [2], 70%. It took 3 µM to reach half-maximal inhibition in data set [1] (IC50).

As to “799718 (antisense k[5mC]*kT*kG*d[5mC]*dT*dA*dG*dG*dG*dA*dT*dA*d[5mC]*kT*kG*kA) [compound 799718]”, the “% inhibition of SMAD7 mRNA expression” value is on record as 23% in data set [1] (setting [3]); 52% in data set [1] (2220 nM, Study 2); 66% in data set [1] (6670.0 nM, Study 2); 72% in data set [1] (20000.0 nM, Study 2); 65% in data set [2]. The substance further showed an IC50 in data set [1] of 4 µM.

Regarding “799722 (antisense kG*k[5mC]*kA*dG*dA*dG*dT*dG*dA*dG*dA*dA*d[5mC]*kA*kA*kG) [compound 799722]”, the “% inhibition of SMAD7 mRNA expression” value in data set [1] (setting [3]) amounted to 17%; in data set [1] (2220 nM, Study 2), 38%; in data set [1] (6670.0 nM, Study 2) it was 53%; in data set [1] (20000.0 nM, Study 2) it was 82%. In data set [1], this substance gave an IC50 of 5 µM. Also, the “% Inhibition” value in data set [2] turned out to be 67%.

In the case of “799734 (antisense kT*k[5mC]*k[5mC]*d[5mC]*dA*dG*dG*dT*dG*dA*dA*d[5mC]*d[5mC]*k[5mC]*kA*k[5mC]) [compound 799734]”, the “% inhibition of SMAD7 mRNA expression” value was 8% in data set [1] (setting [3]); 44% in data set [1] (2220 nM, Study 2); 64% in data set [1] (6670.0 nM, Study 2); 67% in data set [1] (20000.0 nM, Study 2); 45% in data set [2]. The substance also displayed an IC50 in data set [1] of 8 µM.

For “799743 (antisense k[5mC]*kT*kG*dG*dA*dG*dT*dT*dA*dT*dT*d[5mC]*dT*k[5mC]*kA*kA) [compound 799743]”, the “% inhibition of SMAD7 mRNA expression” value in data set [1] (setting [3]) was 0%; in data set [1] (2220 nM, Study 2) it was 43%; in data set [1] (6670.0 nM, Study 2), 44%; in data set [1] (20000.0 nM, Study 2), 64%. Moreover, in data set [1], the midpoint of inhibition, the IC50, lay at 5 µM. In data set [2], the “% Inhibition” value is 51%.

Take “799751 (antisense kG*kA*kG*d[5mC]*dT*dA*dA*dT*dG*dA*d[5mC]*dA*d[5mC]*kT*kG*kG) [compound 799751]”: the “% inhibition of SMAD7 mRNA expression” value in data set [1] (setting [3]) is listed as 11%; in data set [1] (2220 nM, Study 2) it was 35%; in data set [1] (6670.0 nM, Study 2) it was 69%; in data set [1] (20000.0 nM, Study 2), 65%; in data set [2], 60%. Further, the half-inhibitory concentration (IC50) in data set [1] stood at 10 µM.

“799753 (antisense k[5mC]*kG*kT*dG*dA*dG*dT*dA*dA*dA*dT*dT*d[5mC]*kT*kT*kA) [compound 799753]”: the “% inhibition of SMAD7 mRNA expression” value in data set [1] (setting [3]) was found to be 0%; in data set [1] (2220 nM, Study 2), 33%; in data set [1] (6670.0 nM, Study 2) it was 32%; in data set [1] (20000.0 nM, Study 2), 66%; in data set [2], 69%. The substance further displayed an IC50 in data set [1] of 4 µM.

The record behind these values is patent publication US10517889B2, “Modulators of SMAD7 expression” (Ionis Pharmaceuticals, Inc., priority 2017, dated 2019).
